Reference: patent publication US20140113888A1, “Novel Combination of Therapeutic Agents” (Glaxo Group Limited, priority 2011, published 2014)

How the values were obtained:
[1] = 8 week randomised, double-blind, placebo-controlled study in persistent uncontrolled asthma; format: in vivo, human
Procedure: In one such study, the safety and efficacy of four doses of fluticasone furoate in subjects with persistent uncontrolled asthma were evaluated. In this study, which was a randomised, double-blind, placebo-controlled, parallel group study, 598 patients received one of six treatments: fluticasone furoate (25, 50, 100 or 200 mcg) once daily, fluticasone propionate 100 mcg twice daily or placebo for 8 weeks. The primary endpoint was change from baseline in trough (pre-dose) forced expiratory volume in 1 second (FEV1) at Week 8. […] This study supports the use of fluticasone furoate (100 or 200 mcg once-daily) for the treatment of persistant uncontrolled asthma.

[2] = clinical studies of fluticasone furoate (general statement); format: in vivo, human
human M3 receptor = human M3 receptor (Homo sapiens, UniProt P20309); test: reversibility at the human M3 receptor in vitro; format: binding
[3] = duration of action in vivo, administered directly to the lungs in pre-clinical models
[4] = clinical pharmacology studies, single inhaled doses, plethysmography (sGaw, Raw) and spirometry (FEV1); format: in vivo, human; conditions: healthy volunteers and COPD patients
Procedure: Several clinical pharmacology studies have been conducted using umeclidinium bromide in both healthy volunteers and COPD patients to investigate the safety, tolerability, pharmacokinetics and pharmacodynamics of this compound. The bronchodilatory effects and duration of action of single inhaled doses of this compound as measured by plethysmography (sGaw, Raw) and spirometry (FEV1) were assessed in some of the above noted studies.

[5] = 14-day once-daily study in subjects with COPD; format: in vivo, human; conditions: 14 days
Description: In addition, this study confirmed that umeclidinium bromide has a once-daily profile.

[6] = 28 day once-daily dry powder inhaler study in subjects with COPD; format: in vivo, human; conditions: 125, 250 and 500 mcg once-daily, 28 days
Description: A further study evaluated the efficacy and safety of three doses (125 mcg, 250 mcg and 500 mcg) of umeclidinium bromide administered once-daily via a dry powder inhaler over a 28 day period in subjects with COPD.

muscarinic receptor = test: studies in animal models and in humans: muscarinic receptor antagonism

Sequence of human M3 receptor (P20309 whole entry): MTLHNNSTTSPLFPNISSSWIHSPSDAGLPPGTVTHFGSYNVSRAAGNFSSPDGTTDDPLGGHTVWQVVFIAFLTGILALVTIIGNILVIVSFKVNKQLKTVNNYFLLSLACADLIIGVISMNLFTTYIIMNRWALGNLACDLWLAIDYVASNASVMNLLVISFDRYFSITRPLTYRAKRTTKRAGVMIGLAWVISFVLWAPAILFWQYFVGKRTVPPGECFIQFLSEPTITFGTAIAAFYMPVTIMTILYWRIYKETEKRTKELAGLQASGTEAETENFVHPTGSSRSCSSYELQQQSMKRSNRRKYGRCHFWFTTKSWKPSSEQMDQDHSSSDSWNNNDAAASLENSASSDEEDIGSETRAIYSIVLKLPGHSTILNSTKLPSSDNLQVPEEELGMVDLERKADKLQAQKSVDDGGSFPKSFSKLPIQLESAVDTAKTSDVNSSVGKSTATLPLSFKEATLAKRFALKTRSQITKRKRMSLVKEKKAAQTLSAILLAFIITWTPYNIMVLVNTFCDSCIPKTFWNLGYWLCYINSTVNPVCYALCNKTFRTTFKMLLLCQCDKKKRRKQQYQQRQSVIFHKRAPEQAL

| Compound | change from baseline in trough FEV1 at Week 8 relative to placebo ([1]; 50-200 mcg once daily, p<0.05) | increase in trough FEV1 at Week 8 ([1]; 100 mcg once daily) [mL] | increase in trough FEV1 at Week 8 ([1]; 200 mcg once daily) [mL] | tolerability ([2]; clinical studies) | activity after dosing ([2]; inhaled) | reversibility at the human M3 receptor (human M3 receptor) | duration of action in vivo [3] | bronchodilatory effects (sGaw, Raw, FEV1) [4] | duration of action [4] [h] | pulmonary function compared to placebo ([5]; 62.5, 125, 250, 500 and 1000 mcg once-daily) | trough FEV1 versus open label tiotropium active control (18 mcg once-daily) ([5]; all once-daily doses 62.5-1000 mcg) | bronchodilation [6] | safety [6] | muscarinic receptor antagonist profile (muscarinic receptor) |
| --- | --- | --- | --- | --- | --- | --- | --- | --- | --- | --- | --- | --- | --- | --- |
| C[C@@H]1C[C@H]2[C@@H]3C[C@H](F)C4=CC(=O)C=C[C@]4(C)[C@@]3(F)[C@@H](O)C[C@]2(C)[C@@]1(OC(=O)c1ccco1)C(=O)SCF [fluticasone furoate, 6α,9α-difluoro-17α-[(2-furanylcarbonyl)oxy]-11β-hydroxy-16α-methyl-3-oxo-androsta-1,4-diene-17β-carbothioic acid S-fluoromethyl ester] | significantly greater increases | > 200 | > 200 | well-tolerated | still active 24 hours after dosing |  |  |  |  |  |  |  |  |  |
| OC(c1ccccc1)(c1ccccc1)C12CC[N+](CCOCc3ccccc3)(CC1)CC2.[Br-] [umeclidinium bromide, 4-[hydroxy(diphenyl)methyl]-1-{2-[(phenylmethyl)oxy]ethyl}-1-azoniabicyclo[2.2.2]octane bromide] |  |  |  |  |  | slow reversibility | long duration of action | clinically relevant bronchodilation | 24 | statistically significant improvements | numerically greater improvement | significant bronchodilation over twenty four hours | safe | long acting high-affinity pan-active muscarinic receptor antagonist |
